{
  "source": "patent US20090197941A1",
  "about": "“Pharmaceutical Compositons for the Treatment of Chronic Obstructive Pulmonary Disease” (priority 2005, published 2009)",
  "origin": "cited, not measured here",
  "key": {"U87 human glioma cells": {"tested_on": "U87 human glioma cells", "settings": "increasing concentrations of CBD, Boyden chamber, read-out: IC50 of tumour cell migration"}, "CB1 receptors": {"target": "CB1 receptors (Homo sapiens, UniProt P21554)", "sequence (P21554 whole entry)": "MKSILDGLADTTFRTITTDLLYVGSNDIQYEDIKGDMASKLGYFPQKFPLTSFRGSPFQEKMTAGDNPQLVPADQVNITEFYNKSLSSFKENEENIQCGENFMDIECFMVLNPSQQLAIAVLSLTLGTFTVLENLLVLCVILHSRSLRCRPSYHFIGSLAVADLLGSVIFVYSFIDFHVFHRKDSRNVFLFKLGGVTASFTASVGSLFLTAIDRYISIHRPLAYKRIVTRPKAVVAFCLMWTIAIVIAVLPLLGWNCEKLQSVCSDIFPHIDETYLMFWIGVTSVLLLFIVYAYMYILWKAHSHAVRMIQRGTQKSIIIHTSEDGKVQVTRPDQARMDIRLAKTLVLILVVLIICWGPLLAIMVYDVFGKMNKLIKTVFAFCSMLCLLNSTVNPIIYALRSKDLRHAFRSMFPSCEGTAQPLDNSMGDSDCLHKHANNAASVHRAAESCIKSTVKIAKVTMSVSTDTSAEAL", "settings": "known in the art"}, "CB2 receptors": {"target": "CB2 receptors (Homo sapiens, UniProt P34972)", "sequence (P34972 whole entry)": "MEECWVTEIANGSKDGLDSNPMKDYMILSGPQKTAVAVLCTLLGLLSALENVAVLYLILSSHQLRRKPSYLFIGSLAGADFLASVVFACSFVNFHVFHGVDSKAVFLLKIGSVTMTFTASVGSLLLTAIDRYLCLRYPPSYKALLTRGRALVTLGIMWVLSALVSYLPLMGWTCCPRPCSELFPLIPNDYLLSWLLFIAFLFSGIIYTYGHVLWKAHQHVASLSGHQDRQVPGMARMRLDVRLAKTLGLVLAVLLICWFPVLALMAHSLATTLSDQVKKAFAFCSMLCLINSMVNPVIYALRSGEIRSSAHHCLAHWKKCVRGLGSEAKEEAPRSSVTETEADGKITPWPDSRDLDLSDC", "settings": "known in the art"}},
  "data": [
    {"compound": "C=C(C)[C@@H]1CCC(C)=C[C@H]1c1c(O)cc(CCCCC)cc1O", "note": "[CBD, cannabidiol]", "values": [
      {"measurement": "IC50", "setting": "U87 human glioma cells", "result": "5.05 ± 1.1", "unit": "µM"},
      {"measurement": "action at CB1 receptors", "setting": "CB1 receptors", "result": "only very weakly"},
      {"measurement": "action at CB2 receptors", "setting": "CB2 receptors", "result": "not to act"}
    ]}
  ]
}
